The target of experiment [1] is T1, pseudo-kinase domain (JH2, amino-acids 536-812) of human V617F mutant JAK2 (Homo sapiens, UniProt O60674, F794H/V617F/W659A/W777A).
T1 construct: pseudo-kinase domain (JH2, amino-acids 536-812 with 3 surface mutations W659A, W777A, F794H); purchased BPS Bioscience 79498; host or cells: baculovirus expression system
Put plainly: JAK2 LanthaScreen JH2-V617F Binding Assay. The settings on record: 1 hour at 25° C. Summed up:
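This is a TR-FRET tracer-displacement format with a 1 h, 25 °C incubation. It combined 0.26 nM baculovirus-expressed biotinylated JH2-V617F, 50 nM fluorescent JAK2-JH2 tracer and 0.25 nM streptavidin-Tb cryptate in 50 mM Tris pH 7.5, 10 mM MgCl2, 5 mM DTT. Background came from 2 mM ATP, and IC50 values were from four-parameter dose-response fits.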
Background: TR-FRET usually uses a lanthanide donor and a delayed reading to cut background.

Experiment [2] concerns the target T2, pseudo-kinase domain (JH2, amino-acids 536-812) of human Wild Type JAK2 (Homo sapiens, UniProt O60674, F794H/W659A/W777A).
T2 construct: pseudo-kinase domain (JH2, amino-acids 536-812 with 3 surface mutations W659A, W777A, F794H); purchased BPS Bioscience 79463; host or cells: baculovirus expression system
The experiment in a line: JAK2 LanthaScreen JH2-WT Binding Assay. The conditions noted are these: 1 hour at 25° C. Summed up:
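TR-FRET tracer displacement: IC50 from four-parameter dose-response fit. Reaction: compound, 0.145 nM biotinylated JH2 protein from baculovirus, 0.25 nM streptavidin-Tb and 50 nM tracer, 1 h at 25° C, 50 mM Tris pH 7.5 buffer. 2 mM ATP gave non-specific binding.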

Experiment [3] deals with T3, catalytic domain (JH1, amino acids 826-1132) of human JAK2 (Homo sapiens, UniProt O60674).
T3 construct: catalytic domain (JH1, amino acids 826-1132) of human JAK2; purchased Carna Biosciences 08-445-20N; host or cells: baculovirus expression system
T3 sequence (O60674 826-1132): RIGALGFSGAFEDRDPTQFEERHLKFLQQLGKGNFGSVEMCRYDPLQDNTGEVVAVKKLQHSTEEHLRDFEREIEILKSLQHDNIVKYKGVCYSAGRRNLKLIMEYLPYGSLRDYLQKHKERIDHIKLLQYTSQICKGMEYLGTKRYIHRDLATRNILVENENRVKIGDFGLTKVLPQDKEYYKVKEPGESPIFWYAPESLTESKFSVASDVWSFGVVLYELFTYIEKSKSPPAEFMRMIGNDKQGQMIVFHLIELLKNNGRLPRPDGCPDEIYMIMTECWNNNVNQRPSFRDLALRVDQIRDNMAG
Put plainly: JAK2 LanthaScreen JH1 Binding Assay. The conditions noted are these: 2 hours at 25° C. Summed up:
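Reaction held 1.5 nM biotinylated FLAG-JAK2 JH1, 50 nM tracer and 0.5 nM streptavidin-Tb in pH 7.5 Tris buffer; 2 mM ATP defined nonspecific binding.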

Experiment [4] concerns the target T4, catalytic domain (JH1, amino acids 808-1132) of human JAK2 (Homo sapiens, UniProt O60674).
T4 construct: catalytic domain (JH1, amino acids 808-1132) of human JAK2; His (N); purchased BPS Bioscience 40450; host or cells: baculovirus expression system
Put plainly: JAK2 HTRF Enzyme Activity Assay. The settings on record: ATP 30 μM, read-out: ENZ 30UMATP. Format: biochemical. Summed up:
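IC50 values come from a four-parameter fit of HTRF signal (Eu-PY20 antibody/streptavidin-APC, EDTA-quenched). Reaction: 0.015 nM N-His JAK2 catalytic domain (baculovirus), 500 nM biotin-peptide, 30 μM or 1 mM ATP, Tris pH 7.5 buffer, 60 min, 25° C.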

Structures can show the parent of a compound that is named as a salt.

T4 sequence (O60674 808-1132): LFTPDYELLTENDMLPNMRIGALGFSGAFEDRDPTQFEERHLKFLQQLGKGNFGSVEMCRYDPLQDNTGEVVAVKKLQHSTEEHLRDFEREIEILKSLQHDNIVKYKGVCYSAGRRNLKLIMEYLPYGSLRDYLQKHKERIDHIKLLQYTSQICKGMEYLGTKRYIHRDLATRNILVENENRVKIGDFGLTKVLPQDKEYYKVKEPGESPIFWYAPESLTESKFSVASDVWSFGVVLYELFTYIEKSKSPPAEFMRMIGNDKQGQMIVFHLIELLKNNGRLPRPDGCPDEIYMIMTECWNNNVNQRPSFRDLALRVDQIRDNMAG
T1 sequence (O60674 536-812 V617F/W659A/W777A/F794H): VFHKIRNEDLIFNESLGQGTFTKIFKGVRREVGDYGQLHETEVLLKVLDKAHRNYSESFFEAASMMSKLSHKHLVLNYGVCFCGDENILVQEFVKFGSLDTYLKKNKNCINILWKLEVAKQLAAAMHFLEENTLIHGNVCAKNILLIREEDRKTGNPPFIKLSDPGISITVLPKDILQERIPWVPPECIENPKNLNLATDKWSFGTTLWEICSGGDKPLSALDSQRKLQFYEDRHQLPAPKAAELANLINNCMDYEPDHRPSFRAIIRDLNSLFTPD
T2 sequence (O60674 536-812 W659A/W777A/F794H): as the sequence (O60674 536-812 V617F/W659A/W777A/F794H) above, with F82V counted along it

Turning to `O=C(O)C(F)(F)F.[2H]C([2H])([2H])N1C(=O)C2(CC3(CN(S(=O)(=O)CC)C3)C2)c2c1cnc1[nH]c(-c3cnn(C(C)C)c3)c(-c3ccc4c(cnn4C)c3)c21` [Example 89, 1-(Ethylsulfonyl)-2″-(1-isopropyl-1H-pyrazol-4-yl)-6″-(methyl-d3)-1″-(1-methyl-1H-indazol-5-yl)-3″,6″-dihydro-7″H-dispiro[azetidine-3,1′-cyclobutane-3′,8″-dipyrrolo[2,3-b:3′,2′-d]pyridin]-7″-one, trifluoroacetate salt], the IC50 in experiment [1] was at most 0.1 µM; in experiment [2], at most 0.1 µM; in experiment [3] it was 1.25 to 2.5 µM; in experiment [4] it was 1.25 to 2.5 µM.
`CCS(=O)(=O)N1CC2(C1)CC1(C2)C(=O)N(C)c2cnc3[nH]c(-c4cnn(C5CCCC5)c4)c(-c4ccc5c(cnn5C)c4)c3c21` [Example 90, 2″-(1-Cyclopentyl-1H-pyrazol-4-yl)-1-(ethylsulfonyl)-6″-methyl-1″-(1-methyl-1H-indazol-5-yl)-3″,6″-dihydro-7″H-dispiro[azetidine-3,1′-cyclobutane-3′,8″-dipyrrolo[2,3-b:3′,2′-d]pyridin]-7″-one, trifluoroacetate salt]: the IC50 in experiment [1] was at most 0.1 µM; in experiment [2], at most 0.1 µM; in experiment [3] it was 1.25 to 2.5 µM; in experiment [4] it was 1.25 to 2.5 µM.
On to `CCS(=O)(=O)N1CC2(C1)CC1(C2)C(=O)N(C)c2cnc3[nH]c(-c4ccc(CN5CCC(C#N)CC5)cc4)c(-c4ccc5c(cnn5C)c4)c3c21` [Example 91, l-(4-(1-(Ethylsulfonyl)-6″-methyl-1″-(1-(methy-d3)-1H-indazol-5-yl)-7″-oxo-6″,7″-dihydro-3″H-dispiro[azetidine-3,1′-cyclobutane-3′,8″-dipyrrolo[2,3-b:3′,2′-d]pyridin]-2″-yl)benzyl)piperidine-4-carbonitrile, trifluoroacetate salt], for which the IC50 was at most 0.1 µM in experiment [1], at most 0.1 µM in experiment [2], 1.25 to 2.5 µM in experiment [3] and 1.25 to 2.5 µM in experiment [4].
With `O=C(O)C(F)(F)F.[2H]C([2H])([2H])N1C(=O)C2(CC3(CN(S(=O)(=O)CC)C3)C2)c2c1cnc1[nH]c(-c3ccc(CN4CCOCC4)cc3)c(-c3ccc(OC)cc3)c21` [Example 92, 1-(Ethylsulfonyl)-1″-(4-methoxyphenyl)-6″-(methyl-d3)-2″-(4-(morpholinomethyl)phenyl)-3″,6″-dihydro-7″H-dispiro[azetidine-3,1′-cyclobutane-3′,8″-dipyrrolo[2,3-b:3′,2′-d]pyridin]-7″-one, trifluoroacetate salt], the IC50 in experiment [1] is at most 0.1 µM; in experiment [2], at most 0.1 µM; in experiment [3] it was over 2.5 µM; in experiment [4] it was over 2.5 µM.
For `CCS(=O)(=O)N1CC2(C1)CC1(C2)C(=O)N(C)c2cnc3[nH]c(-c4cnn(CC(F)F)c4)c(-c4ccc5c(cnn5C)c4)c3c21` [Example 93, 2″-(1-(2,2-Difluoroethyl)-1H-pyrazol-4-yl)-1-(ethylsulfonyl)-6″-methyl-1″-(1-methyl-1H-indazol-5-yl)-3″,6″-dihydro-7″-dispiro[azetidine-3,1′-cyclobutane-3′,8″-dipyrrolo[2,3-b:3′,2′-d]pyridin]-7″-one, trifluoroacetate salt], the IC50 is at most 0.1 µM in experiment [1], at most 0.1 µM in experiment [2], 1.25 to 2.5 µM in experiment [3] and 1.25 to 2.5 µM in experiment [4].
In the case of `CCS(=O)(=O)N1CC2(C1)CC1(C2)C(=O)N(C)c2cnc3[nH]c(-c4cnn5c4CCC5)c(-c4ccc5c(cnn5C)c4)c3c21` [Example 94, 2″-(5,6-Dihydro-4H-pyrrolo[l,2-b]pyrazol-3-yl)-1-(ethylsulfonyl)-6″-methyl-1″-(1-methyl-1H-indazol-5-yl)-3″,6″-dihydro-7″-dispiro[azetidine-3,1′-cyclobutane-3′,8″-dipyrrolo[2,3-b:3′,2′-d]pyridin]-7″-one, trifluoroacetate salt], the IC50 is at most 0.1 µM in experiment [1], at most 0.1 µM in experiment [2], over 2.5 µM in experiment [3] and over 2.5 µM in experiment [4].
As to `O=C(O)C(F)(F)F.[2H]C([2H])([2H])N1C(=O)C2(CC3(CN(S(=O)(=O)CC)C3)C2)c2c1cnc1[nH]c(-c3cnn(CC)c3)c(-c3ccc(OC)cc3)c21` [Example 95, 2″-(1-Ethyl-1H-pyrazol-4-yl)-1-(ethylsulfonyl)-1″-(4-methoxyphenyl)-6″-(methyl-d3)-3″,6″-dihydro-7″H-dispiro[azetidine-3,1′-cyclobutane-3′,8″-dipyrrolo[2,3-b:3′,2′-d]pyridin]-7″-one, trifluoroacetate salt], the IC50 in experiment [1] is at most 0.1 µM; in experiment [2], at most 0.1 µM; in experiment [3] it was 0.5 to 1.25 µM; in experiment [4], 0.5 to 1.25 µM.
As for `O=C(O)C(F)(F)F.[2H]C([2H])([2H])n1ncc2cc(-c3c(-c4cnn(CC(C)(C)OC)c4)[nH]c4ncc5c(c34)C3(CC4(CN(S(=O)(=O)CC)C4)C3)C(=O)N5C)ccc21` [Example 96, 1-(Ethylsulfonyl)-2″-(1-(2-methoxy-2-methylpropyl)-1H-pyrazol-4-yl)-6″-methyl-1″-(1-(methyl-d3)-1H-indazol-5-yl)-3″,6″-dihydro-7″H-dispiro[azetidine-3,1′-cyclobutane-3′,8″-dipyrrolo[2,3-b:3′,2′-d]pyridin]-7″-one, trifluoroacetate salt], the IC50 in experiment [1] was at most 0.1 µM; in experiment [2], at most 0.1 µM; in experiment [3], over 2.5 µM; in experiment [4], over 2.5 µM.
Turning to `CCS(=O)(=O)N1CC2(C1)CC1(C2)C(=O)N(C)c2cnc3[nH]c(-c4cnn(CC5CCOCC5)c4)c(-c4ccc5c(cnn5C)c4)c3c21` [Example 97, 1-(Ethylsulfonyl)-6″-methyl-1″-(1-methyl-1H-indazol-5-yl)-2″-(1-((tetrahydro-2H-pyran-4-yl)methyl)-1H-pyrazol-4-yl)-3″,6″-dihydro-7″H-dispiro[azetidine-3,1′-cyclobutane-3′,8″-dipyrrolo[2,3-b:3′,2′-d]pyridin]-7″-one, trifluoroacetate salt], the IC50 in experiment [1] is at most 0.1 µM; in experiment [2] it was at most 0.1 µM; in experiment [3] it was 1.25 to 2.5 µM; in experiment [4], 1.25 to 2.5 µM.

The values above are taken from US11958861B2, “Spirocyclic lactams as JAK2 V617F inhibitors” (Incyte Corporation, priority 2021, dated 2024).
